Each structure is given as a SMILES string.

For the first assay, the target named is WDR5 protein (22-334aa) with MLL1 polypeptide (3672-3773aa) (Homo sapiens, UniProt P61964). The assay can be described thus: WDR5-MLL PPI inhibitory activity test (HTRF). The conditions noted are these: His-tagged WDR5 and biotin-tagged MLL1 polypeptide. The assay is classed as binding. The source says:
Test Example 1: WDR5-MLL PPI Inhibitory Activity Test
Effect of the compounds on WDR5 (WD Repeat Domain 5) and MLL1 (mixed-lineage leukemia 1) peptides at molecular level.
The effect of the compound on the interaction of WDR5 protein (22-334aa) with MLL1 polypeptide (3672-3773aa) was detected by HTRF (Homogeneous Time-Resolved Fluorescence) technology. When the N-terminal His-tagged WDR5 recognized by the Anti-6His-Eu cryptate donor interacts with the biotin-tagged MLL1 polypeptide recognized by the streptavidin-APC receptor, the donor and acceptor are pulled close enough to produce fluorescence resonance energy transfer (FRET). […] Therefore, the decrease in FRET signal can reflect the compound's inhibition on the interaction of WDR5 with MLL1 polypeptide.
The compound to be tested was diluted 3-fold with DMSO. […] Then the compound was diluted with reaction buffer (25 mM HEPES pH=7.5, 100 mM NaCl, 0.05% Tween 20) to control the final concentration of DMSO at 0.5%. In a 384-well plate, 1 μL of compound and 3 μL of 42 nM WDR5 protein were added, centrifuged at 1000 rpm for 1 min, incubated at room temperature for 60 min, followed by adding 3 μL of 333 nM MLL1 polypeptide with incubation at room temperature for 10 min, and followed by adding 3 μL of a mixed liquid of Anti-6His-Eu cryptate and streptavidin-APC with centrifugation at 1000 rpm for 1 mi and incubation at room temperature protected from light for 60 min, using a multifunction microplate reader (EnVision®2105) to read the signal. The following controls were set up per plate: control group (1 μL with 5% DMSO reaction buffer, 3 μL of 42 nM WDR5, 3 μL of MLL1 polypeptide, 3 μL of Anti-6His-Eu cryptate and streptavidin-APC). Blank group (1 μL reaction buffer with 5% DMSO, 3 μL reaction buffer, 3 μL MLL1 polypeptide, 3 μL Anti-6His-Eu cryptate and streptavidin-APC). The test data was calculated according to the signal ratio of two beams of fluorescence at different wavelengths: (665 nm signal/620 nm signal)*10000. […] The IC50 value was calculated using XLfit software.
In the case of `CCOc1cc(C(C)N2CC3(CC3(F)F)c3c(CN(C)C)cc(Cn4ccnc4NC)cc3C2=O)ncc1F` (single isomer, unassigned) [Compound 88], the IC50 is less than 0.02 µM.

Consider `CCOc1cc([C@H](C)N2C[C@@]3(CC3(F)F)c3c(CN(C)C)cc(Cn4ccnc4NC)cc3C2=O)ncc1F` (stereo in doubt) [Compound 97, (R)-5′-((dimethylamino)methyl)-2′-((S)-1-(4-ethoxy-5-fluoropyridine-2-yl)ethyl)-2,2-difluoro-7′-((2-(methylamino)-1H imidazol-1-yl)methyl)-2′, 3′-dihydro-1′H-spiro[cyclopropan-1,4′-isoquinoline]-1′-one], for which the IC50 is less than 0.02 µM.

Compound `CCOc1cc([C@H](C)N2CC3(CC3)c3c(CN4CCCCC4)cc(Cn4ccnc4NC)cc3C2=O)ncc1F` [Compound 7] came in with an IC50 of less than 0.02 µM.

In turn, `CCOc1cc([C@H](C)N2CC3(CC3)c3c(CN(C)CC#N)cc(Cn4ccnc4NC)cc3C2=O)ncc1F` [Compound 43] came in with an IC50 of less than 0.02 µM.

As to `CCOc1cc([C@H](C)N2CC3(CCC3)c3c(CN4CCNCC4)cc(Cn4ccnc4NC)cc3C2=O)ncc1C#N` [Compound 49, (S)-4-ethoxy-6-(1-(7′-((2-(methylamino)-1H-imidazol-1-yl)methyl)-1′-one-5′-(piperazin-1-ylmethyl)-1′H-spiro[cyclobutan-1,4′-isoquinoline]-2′(3′H)-yl)ethyl)nicotinonitrile], the IC50 is less than 0.02 µM.

`CCOc1cc([C@H](C)N2CC3(CC3)c3c(CN4CC(N(C)C)C4)cc(Cn4ccnc4NC)cc3C2=O)ncc1F` [Compound 58, (S)-5′-((3-(dimethylamino)azetidinyl-1-yl)methyl)-2′-(1-(4-ethoxy-5-fluoropyridine-2-yl)ethyl)-7′-((2-(methylamino)-1H-imidazol-1-yl)methyl)-2′,3′-dihydro-1′H-spiro[cyclopropan-1,4′-isoquinoline]-1′-one] showed an IC50 of less than 0.02 µM.

With `CCOc1cc([C@H](C)N2CC3(CC3)c3c(CN4CCN(CC(F)(F)F)CC4)cc(Cn4ccnc4NC)cc3C2=O)ncc1F` [Compound 62], the IC50 was less than 0.02 µM.

Turning to `CCOc1cc([C@H](C)N2CC3(CC3)c3c(CN4CCN(CCC(F)(F)F)CC4)cc(Cn4ccnc4NC)cc3C2=O)ncc1F` [Compound 65], the IC50 was less than 0.02 µM.

In turn, `CCOc1cc(CN2CC3(CC3)c3c(CN4CCN(C)CC4)cc(Cn4ccnc4NC)cc3C2=O)ncc1F` [Compound 69, 2′-((4-ethoxy-5-fluoropyridine-2-yl)methyl)-7′-((2-(methylamino)-1H-imidazol-1-yl)methyl)-5′-((4-methylpiperazin-1-yl)methyl)-2′,3′-dihydro-1′H-spiro[cyclopropan-1,4′-isoquinoline]-1′-one] returned an IC50 of less than 0.02 µM.

The compound `CCOc1cc([C@H](C)N2CC3(CCC3)c3c(CN4CCC(N(C)C)CC4)cc(Cn4ccnc4NC)cc3C2=O)ncc1C#N` [Compound 74] showed an IC50 of less than 0.02 µM.

Turning to `CCOc1cc([C@H](C)N2CC3(CCC3)c3c(CN4CCC(NC)CC4)cc(Cn4ccnc4NC)cc3C2=O)ncc1C#N` [Compound 75, (S)-4-ethoxy-6-(1-(7′-((2-(methylamino)-1H-imidazol-1-yl)methyl)-5′-((4-(methylamino)piperidin-1-yl)methyl)-1′-one-1′H-spiro[cyclobutan-1,4′-isoquinoline]-2′(3′H)-yl)ethyl)nicotinonitrile], the IC50 was less than 0.02 µM.

Compound `CCOc1cc(CN2CC3(CC3)c3c(CN(C)C)cc(Cn4ccnc4NC)cc3C2=O)ncc1F` [Compound 76, 5′-((dimethylamino)methyl)-2′-((4-ethoxy-5-fluoropyridine-2-yl)methyl)-7′-((2-(methylamino)-1H-imidazol-1-yl)methyl)-2′,3′-dihydro-1′H-spiro[cyclopropan-1,4′-isoquinoline]-1′-one] displayed an IC50 of 0.02 to 0.1 µM.

`CCOc1cc([C@H](C)N2CC3(CCC3)c3c(CN4CCN(C(C)=O)CC4)cc(Cn4ccnc4NC)cc3C2=O)ncc1F` [Compound 86, (S)-5′-((4-acetylpiperazin-1-yl)methyl)-2′-(1-(4-ethoxy-5-fluoropyridine-2-yl)ethyl)-7′-((2-(methylamino)-1H-imidazol-1-yl)methyl)-2′,3′-dihydro-1′H-spiro[cyclobutyl-1,4′-isoquinoline]-1′-one] gave an IC50 of less than 0.02 µM.

As for `CCOc1cc([C@@H](C)N2C[C@@]3(CC3(F)F)c3c(CN(C)C)cc(Cn4ccnc4NC)cc3C2=O)ncc1F` [Compound 90, (R)-5′-((dimethylamino)methyl)-2′-((R)-1-(4-ethoxy-5-fluoropyridine-2-yl)ethyl)-2,2-difluoro-7′-((2-(methylamino)-1H imidazol-1-yl)methyl)-2′, 3′-dihydro-1′H-spiro[cyclopropan-1,4′-isoquinoline]-1′-one], the IC50 was less than 0.02 µM.

`CCOc1cc(C(C)N2CC3(CCC3)c3c(CN4CC5(CNC5)C4)cc(Cn4ccnc4NC)cc3C2=O)ncc1C#N` (stereo not shown) [Compound 102]: the IC50 lay in the range of 0.02 to 0.1 µM.

For `CCOc1cc(C(C)N2CC3(CCC3)c3c(CN(C)C)cc(Cn4ccc5ncccc54)cc3C2=O)ncc1C#N` (stereo not shown) [Compound 108, 6-(1-(7′-((1Hpyrrol[3,2-b]pyridine-1-yl)methyl)-5′-((dimethylamino)methyl)-1′-oxo-1′H-spiro[cyclobutan-1,4′-isoquinoline]-2′(3′H)-yl)ethyl)-4-ethoxynicotinonitrile], the IC50 lay in the range of 0.02 to 0.1 µM.

Compound `CCOc1cc([C@H](C)N2CC3(CC3)c3c(C(=O)N(C)C)cc(Cn4ccnc4NC)cc3C2=O)ncc1F` [Compound 110] showed an IC50 of less than 0.02 µM.

On to `CCOc1cccc2c1CCC2N1CC2(CCC2)c2c(CN(C)C)cc(Cn3ccnc3NC)cc2C1=O` (stereo not shown) [Compound 113, 5′-((dimethylamino)methyl)-2′-(4-ethoxy-2,3-dihydro-1H-indene-1-yl)-7′-((2-(methylamino)-1H-imidazol-1-yl)methyl)-2′,3′-dihydro-1′H-spiro[cyclobutan-1,4′-isoquinoline]-1′-one], for which the IC50 is less than 0.02 µM.

`CCOc1cc([C@H](C)N2CC3(CC3)c3c(CN(C)C)cc(Cn4cnc5c4CCCC5)cc3C2=O)ncc1F` [Compound 114, (S)-5′-((dimethylamino)methyl)-2′-(1-(4-ethoxy-5-fluoropyridine-2-yl)ethyl)-7′-((4,5,6,7-tetrahydro-1H-benzo[d]imidazol-1-yl)methyl)-2′,3′-dihydro-1′H-spiro[cyclopropan-1,4′-isoquinoline]-1′-one] displayed an IC50 of less than 0.02 µM.

`CNc1nccn1Cc1cc(CN(C)C)c2c(c1)C(=O)N(C(C)c1ccc(O)c(O)c1)CC21CCC1` (stereo not shown) [Compound 115, 2′-(1-(3,4-dihydroxylphenyl)ethyl)-5′-((dimethylamino)methyl)-7′-((2-(methylamino)-1H-imidazol-1-yl)methyl)-2′,3′-dihydro-1′H-spiro[cyclobutan-1,4′-isoquinoline]-1′-one] gave an IC50 of 0.02 to 0.1 µM.

`CCOc1cc(CN2CC3(CCC3)c3c(CN(C)C)cc(Cn4ccnc4C)cc3C2=O)ncc1C#N` [Compound 117, 6-((5′-((dimethylamino)methyl)-7′-((2-methyl-1H-imidazol-1-yl)methyl)-1′-oxo-1′H-spiro[cyclobutan-1,4′-isoquinoline]-2′-3′H-yl)methyl)-4-ethoxynicotinonitrile]: the IC50 was less than 0.02 µM.

A further assay has as its system MV4-11 cells. The assay can be described thus: MV4-11 cell proliferation inhibition experiment (CellTiter-Glo). In kind it is cell-based. Particulars: Homo sapiens, 144 h, 6 days, read-out: cell proliferation inhibitory activity. How it is done: Test Example 2: MV4-11 Cell (ATCC: CRL-9591) Proliferation Inhibition Experiment
ATP in living cells was quantitatively detected by CellTiter-Glo (Promega-G7573) Luminescence Cell Viability Assay Kit to determine the effect of the compounds to be tested on cell proliferation. • Step 1: MV4-11 cells were seeded in 96-well plates (Greiner-655098) at a density of 1,500 cells per well with a volume of 140 μL per well; Cell culture medium components included RPM11640 (Gibco-A10491-01)+10% FBS (Gibco-10099-141C)+1% Penicillin-Streptomycin (5,000 U/mL, Gibco-15070-063). • Step 2: On the day of cell seeding, the cells were treated with the compound to be tested. The compound to be tested was diluted with a 3-fold gradient, and a total of 9 concentration gradients were set. DMSO (Sigma, D2650) with 0.5% final concentration or a DMSO solution containing the compound to be tested was added per well with 2 or 3 replicate wells at each concentration point. The plates were incubated at 37° C. in a 5% CO2 incubator (Thermo Scientific Steri-Cycle 371) for 6 days. • Step 3: The cell viability in the control and treatment groups was detected with CellTiter-Glo Luminescent Cell Viability Assay Kit. 50 μL of CellTiter-Glo was added per well, mixed well, and incubated for 15 min at room temperature protected from light. According to the kit instructions, the chemiluminescence signal was read using a multifunctional microplate reader (EnVision, PerkinElmer).
The inhibition percentage (%) of the compound at each concentration point was calculated by the following formula:
Inhibition Percentage (%)=(1−signal value of the group treated with the compound/signal value of the group treated with DMSO)*100.
The value of cell proliferation semi-inhibitory concentration IC50 was calculated using GraphPad Prism software, and the results are shown in Table 2.
For `CCOc1cc(C(C)N2CC3(CC3(F)F)c3c(CN(C)C)cc(Cn4ccnc4NC)cc3C2=O)ncc1F` (single isomer, unassigned) [Compound 88], the IC50 was less than 0.05 µM.

The record behind these values is patent US20240101535A1, “DIHYDROISOQUINOLINONE DERIVATIVE AND APPLICATION THEREOF” (ETERN BIOPHARMA (SHANGHAI) CO., LTD., priority 2020, published 2024).
